Measured values reported in patent US7125958B1, “Malaria polypeptides” (priority 1997, dated 2006).
“Also recorded” adds a separate entry of the source. Read-outs that look alike come from different tables or passages of the source.

What was measured:
[1] = tested on: FCR3S1 rosettes; assay: Rosette disruption assay, laboratory strain FCR3S1; assay type: cell-based, Plasmodium falciparum; details: for reduction of rosette disruption efficiency compared to native heparin: modified heparin; for rosette disrupting effect of heparin disaccharides: not shown; for rosette reversion by disaccharide: at 45 mM; for sensitivity of FCR3S1 rosettes to the compound: 30 minutes at 37° C.
Text: (§1) Parasites and rosetting—Two distinct highly resetting P. Falciparum laboratory stains were used: FCR3S1 (previously named R^+PA1) and TM 284 (isolated in Thailand, 1990). Parasites were cultivated according to standard procedures (Udomsangpetch et al. 1989). Field isolates were obtained from patients attending the Albert Schweitzer Hospital, Lambaréné, Gabon between April and June 1996. […] A venous or capillary blood sample was taken after patients or parents informed consent. Blood was washed three times with RPMI and cultivated according to standard procedures (Udomsangpetch et al. 1989). Assessment for parasite growth and resetting was made every 6–8 hours using a Leitz UV-light microscope. Briefly, an aliquot of parasite culture was mixed with a small amount of acridine orange and the sample was analyzed. Assays were performed on rosetting isolates when the majority of parasites in culture had reached the trophozoite stage. The resetting rate was expressed as the number of infected erythrocytes in rosettes relative to the total number of late stage infected erythrocytes. Three hundred infected cells were counted. Parasitemia was calculated as the number of infected erythrocytes relative to the number of uninfected erythrocytes.
(§2) For laboratory stains, parasite cultures with rosetting rates of 50–70% and parasitemia 5–8% were used Aliquots (12.5–25 μl) of parasite cultures were mixed with equal amounts of sulfated glycoconjugate compound in RPMI in a 96-well microtiter plate, at final concentrations indicated After incubation for 30 minutes at 37° C. assessment for resetting was made as described above. The resetting rate was compared to that of culture mixed with RPMI.

[2] = tested on: TM 284 rosetting; assay type: cell-based, Plasmodium falciparum; details: compared to mock treated control cultures
[3] = tested on: FCR3S1 rosetting; assay type: cell-based, Plasmodium falciparum; details: compared to mock treated control cultures
[4] = tested on: uninfected RBC rosette binding capacity; assay type: cell-based, Plasmodium falciparum; details: compared to non-treated RBC
[5] = tested on: FCR3S1.2 rosettes; assay: Rosette disruption assay, FCR3S1.2; assay type: cell-based, Plasmodium falciparum; details: incubated with GAGs for 1 h at 37° C., compared to control culture
Method: FIG. 5. Effect of glycosaminoglycans (GAGS) on P. falciparum resetting. […] FCR3S1.2 cultures were incubated with GAGs for 1 h at 37° C. and compared to control culture. Results are the means and standard error of three separate experiments.
The assay was performed essentially as described (Carlson, J. and M. Wahlgren, 1992. Plasmodium falciparum erythrocytes resetting is mediated by promiscuous lectin-like interactions. J. Exp. Med., 176, 1311–1317). The recombinant fission proteins ([…] in PBS of DBL-1-GST or ATS-GST) were added to 25 μl aliquots of a ≈80% rosetting culture of FCR3S1.2 in a micro-titre plate. The mixtures were incubated for 30 min. at 37° C. after which the rosetting rate was scored and compared to mock treated controls after staining with acridine orange.

[6] = tested on: FCR3S1 rosettes; assay type: cell-based, Plasmodium falciparum
[7] = tested on: TM 284 rosettes; assay type: cell-based, Plasmodium falciparum
[8] = tested on: DBL-1-GST fusion protein (FCR3S1.2-PfEMP1); assay: Heparin blocking assay: inhibition of DBL-1-GST binding to heparin-sepharose by GAGs; parameters: species or system Plasmodium falciparum; details: GAG titrated from 10 to 0.5 mg/ml, SDS-PAGE
Method: The potential binding of the fusion proteins to heparin was studied by mixing either DBL-1-GST, ATS-GST fusion protein or GST alone (20 μl, 150 μg/ml in PBS) with 20 μl of 50% heparin-sepharose (Pharmacia) and incubating for 5 min at room temperature in the absence of serum; binding to uncoupled sepharose was used as control. The heparin-sepharose and protein mixture was washed 3 times in large volumes of PBST buffer (PBS plus 0.05% Tween-20) before extracting bound proteins in loading-buffer for 10% SDS-PAGE. Inhibition of DBL-1-GST fission protein binding to heparin with heparin, heparan sulfate or chondroitin sulfate (Lövens Kemiske Fabrik, Denmark, more than 90% pure) was also tested. Twenty μl of 150 μg/ml DBL-1-GST fusion protein was mixed separately for 5 minutes with an equal volume of heparin, heparan sulfate, or chondroitin sulfate, titrated from 10 to 0.5 mg/ml, before the addition of heparin sepharose. The inhibitory activities were checked by SDS-PAGE.

[9] = tested on: TM 284 rosettes; assay: Rosette disruption assay, laboratory strain TM 284; assay type: cell-based, Plasmodium falciparum; details: for sensitivity of TM 284 rosettes to the compound: relative to FCR3S1
Text: as §1, §2

[10] = tested on: rosettes of wild isolates; assay: Rosette disruption assay, wild (patient) isolates; assay type: cell-based, Plasmodium falciparum; details: for relative effectiveness as rosette disrupter on the whole collection of wild isolates: thirtytwo patient isolates; for rosette disruption of wild / fresh isolates: both groups of isolates
Text: as §1, §2

[11] = tested on: DBL-1-GST fusion protein (FCR3S1.2-PfEMP1); assay: Erythrocyte blocking assay: inhibition of DBL-1-GST binding to RBC by GAGs; assay type: cell-based, Plasmodium falciparum; details: GAG titrated from 20 to 8 mg/ml
Method: Ten-well immunofluorescence glass-slides were precoated with 10% poly-L-lysine in PBS for 30 min. Monolayers of RBC were made by addition of 20 μl of 0.5% 3× washed bloodgroup O Rh^+RBC in PBS to each well. Twenty μl DBL-1-GST, ATS-GST or GST alone (80 μg/ml) in PBS was added to the wells for 30 min. The DBL-1-GST fusion protein was in subsequent experiments incubated in the presence of heparin, heparan sulfate or chondroitin sulfate (titrated from 20 to 8 mg/ml) to study the inhibitory activity of each GAG. Slides were washed 3 times with PBS and the fusion protein-binding was detected with the biotin-labelled anti-GST mAb and an EXTRAVIDIN (a modified avidin) FITC conjugate (Sigma). The fluorescence was assessed in a Nikon Optiphot-2 UV microscope, using a ×10 ocular and an oil lens with a magnification of ×100.

[12] = tested on: rosettes of fresh P. falciparum-isolates; details: cited from earlier work

2-O-desulfated heparin
reduction of rosette disruption efficiency compared to native heparin [1]: ~10 fold

6-O-desulfated heparin
reduction of rosette disruption efficiency compared to native heparin [1]: ~10 fold

O=C(O)C1=C[C@H](O)[C@@H](OS(=O)(=O)O)[C@H](O[C@H]2[C@H](O)[C@@H](NS(=O)(=O)O)[C@@H](O)O[C@@H]2COS(=O)(=O)O)O1 [I-S, ΔHexA(2-OSO3)-GlcNSO3(6-OSO3)]
rosette disruption by disaccharide titrated against heparin ([1]; 30 mM disaccharide, preliminary experiment): disrupted to the same extent as with heparin at 1 mg/ml

N[C@H]1C(O)O[C@H](COS(=O)(=O)O)[C@@H](O[C@@H]2OC(C(=O)O)=C[C@H](O)[C@H]2O)[C@@H]1O (stereo partly shown) [II-H, ΔHexA-GlcN(6-OSO3)]
rosette disrupting effect of heparin disaccharides [1]: no rosette disrupting effect

NC1C(O)OC(CO)C(OC2OC(C(=O)O)=CC(O)C2OS(=O)(=O)O)C1O (stereo not shown) [III-H, ΔHexA(2-OSO3-GlcN)]
rosette disrupting effect of heparin disaccharides [1]: no rosette disrupting effect

CC(=O)NC1C(O)OC(CO)C(OC2OC(C(=O)O)=CC(O)C2O)C1O (stereo not shown) [IV-A, ΔHexA-ClcNAc]
rosette reversion by disaccharide [1]: completely lacked effect

N[C@H]1C(O)O[C@H](CO)[C@@H](O[C@@H]2OC(C(=O)O)=C[C@H](O)[C@H]2O)[C@@H]1O (stereo partly shown) [IV-H, ΔHexA-GlcN]
rosette disrupting effect of heparin disaccharides [1]: no rosette disrupting effect

O=C(O)C1=C[C@H](O)[C@@H](O)[C@H](O[C@H]2[C@H](O)[C@@H](NS(=O)(=O)O)C(O)O[C@@H]2CO)O1 (stereo partly shown) [IV-S, ΔHexA-GlcNSO3]
rosette reversion by disaccharide [1]: complete rosette reversion

CC(=O)N[C@H]1C(O)O[C@H](COS(=O)(=O)O)[C@@H](O)[C@@H]1O (stereo partly shown) [N-acetylated glucosamine with an O-sulfate ester at C-6]
rosette disrupting activity of monosaccharides [1]: Some activity

O=S(=O)(O)NC1C(O)OC(CO)C(O)C1O (stereo not shown) [N-sulfated galactosamine]
rosette disrupting activity of monosaccharides [1]: lacked rosette disrupting activity and none and does not

O=S(=O)(O)N[C@H]1C(O)O[C@H](CO)[C@@H](O)[C@@H]1O (stereo partly shown) [N-sulfated glucosamine]
rosette disrupting activity of monosaccharides [1]: total rosette disruption; also recorded: abolishes rosetting | rosette disrupting activity of monosaccharides ([1]; listed as N-sulfated mono-saccharide glucosamine): good anti-rosetting activity

[O-][I+3]([O-])([O-])O [Sodium periodate]
change in rosetting after treatment of whole cultures, TM 284 [2]: intermediate effect | change in rosetting after treatment of whole cultures, FCR3S1 [3]: intermediate effect | decrease of rosette binding capacity of treated uninfected RBC [4]: 4 fold

Chondroitin sulfate B
disruptive activity of GAGs on FCR3S1.2 rosettes [5]: slight effect only at high concentrations

Chondroitinase ABC
change in rosetting after treatment of whole cultures, TM 284 [2]: had only effect on the rosetting of the TM284 strain | change in rosetting after treatment of whole cultures, FCR3S1 [3]: had only effect on the rosetting of the TM284 strain | binding capacity of treated uninfected RBC, FCR3S1 [6]: unaffected | decrease of binding capacity of treated uninfected RBC, TM 284 [7]: two fold decrease

chondroitin sulfate
inhibition of DBL-1-GST binding to heparin-sepharose [8]: but not with chondroitin sulfate | sensitivity of FCR3S1 rosettes to the compound [1]: little or no effect | sensitivity of TM 284 rosettes to the compound [9]: relatively higher sensitivity | relative effectiveness as rosette disrupter on the whole collection of wild isolates [10]: the least effective

chondroitin sulfate A
disruptive activity of GAGs on FCR3S1.2 rosettes [5]: neither chondroitin sulfate A, keratan sulfate, nor hyaluronic acid had any effect

chymotrypsin
change in rosetting after treatment of whole cultures, TM 284 [2]: rosetting was abolished completely | change in rosetting after treatment of whole cultures, FCR3S1 [3]: rosetting was abolished completely

dermatan sulfate
sensitivity of FCR3S1 rosettes to the compound [1]: little or no effect | sensitivity of TM 284 rosettes to the compound [9]: relatively higher sensitivity | relative effectiveness as rosette disrupter on the whole collection of wild isolates [10]: intermediate position

dextran sulfate
rosette disruption of wild / fresh isolates [10]: much less effective that GAGs in most of the strains | relative effectiveness as rosette disrupter on the whole collection of wild isolates [10]: intermediate position

fucoidan
rosette disruption of wild / fresh isolates [10]: strong rosette disrupter; also recorded: disrupted rosettes of almost all fresh isolates | relative effectiveness as rosette disrupter on the whole collection of wild isolates [10]: most effective rosette disrupter for most isolates

heparan sulfate
inhibition of DBL-1-GST binding to heparin-sepharose [8]: dose-dependently be competed out | inhibition of DBL-1-GST binding to erythrocytes [11]: could be inhibited with small amounts | disruptive activity of GAGs on FCR3S1.2 rosettes [5]: sensitive | sensitivity of FCR3S1 rosettes to the compound [1]: high sensitivity | sensitivity of TM 284 rosettes to the compound [9]: less sensitive | relative effectiveness as rosette disrupter on the whole collection of wild isolates [10]: intermediate position

heparin
inhibition of DBL-1-GST binding to heparin-sepharose [8]: dose-dependently be competed out | fresh isolates whose rosettes were disrupted ([12]; 54 fresh isolates): 50% | number of fresh isolates whose rosettes were disrupted ([12]; out of 54 fresh isolates): 27 | inhibition of DBL-1-GST binding to erythrocytes [11]: could be inhibited with small amounts | disruptive activity of GAGs on FCR3S1.2 rosettes [5]: sensitive | sensitivity of FCR3S1 rosettes to the compound [1]: high sensitivity | efficiency of heparin chain relative to disaccharide I-S, weight basis ([1]; heparin 1 mg/ml vs I-S 30 mM): around 20 fold | efficiency of heparin chain relative to disaccharide I-S, molar basis ([1]; heparin ≃70 μM vs I-S 30 mM): around 500 fold | rosettes disrupted ([9]; at 1 mg/ml (not shown)): 80% | sensitivity of TM 284 rosettes to the compound [9]: less sensitive | relative effectiveness as rosette disrupter on the whole collection of wild isolates [10]: intermediate position

hyaluronic acid
disruptive activity of GAGs on FCR3S1.2 rosettes [5]: neither chondroitin sulfate A, keratan sulfate, nor hyaluronic acid had any effect

keratan sulfate
disruptive activity of GAGs on FCR3S1.2 rosettes [5]: neither chondroitin sulfate A, keratan sulfate, nor hyaluronic acid had any effect

trypsin
change in rosetting after treatment of whole cultures, TM 284 [2]: rosetting was abolished completely | change in rosetting after treatment of whole cultures, FCR3S1 [3]: rosetting was abolished completely
